Data reported in patent publication US10266526B2, “Substituted 1,2,3-triazoles as SMYD inhibitors for treating cancer” (EPIZYME, INC., priority 2014, dated 2019).

Each compound was assayed against SMYD2 (Homo sapiens (Human), UniProt Q9NRG4) (assay: SMYD2 biochemical assay (SMYD2 enzyme assay on peptide substrate, 3H-SAM Flashplate)). Settings: read-out: SMYD2 Biochem IC50; IC50 values are an average of n = 1 to n = 50.
Sequence of SMYD2 (Q9NRG4 whole entry): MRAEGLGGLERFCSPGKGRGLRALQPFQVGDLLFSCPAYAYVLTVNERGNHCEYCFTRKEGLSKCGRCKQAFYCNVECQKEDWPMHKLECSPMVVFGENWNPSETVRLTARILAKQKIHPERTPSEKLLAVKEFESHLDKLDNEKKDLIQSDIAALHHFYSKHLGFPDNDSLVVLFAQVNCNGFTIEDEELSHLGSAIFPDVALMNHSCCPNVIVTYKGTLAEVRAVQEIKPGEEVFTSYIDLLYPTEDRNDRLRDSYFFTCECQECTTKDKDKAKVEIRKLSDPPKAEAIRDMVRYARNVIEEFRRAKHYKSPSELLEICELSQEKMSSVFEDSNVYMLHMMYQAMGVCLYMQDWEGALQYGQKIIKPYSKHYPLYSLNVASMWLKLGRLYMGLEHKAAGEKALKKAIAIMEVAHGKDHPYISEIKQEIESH

Point of comparison: `COc1ccc(C(N2CC(NC(=O)c3cn(C4CC4)nn3)C2)C(F)(F)F)cc1` (stereo not shown) [compound 749, 1-cyclopropyl-N-{1-[2,2,2-trifluoro-1-(4-methoxyphenyl)ethyl]azetidin-3-yl}-1H-1,2,3-triazole-4-carboxamide], IC50 0.565 µM. Against it:
- NC(=O)c1cccc(CN2CC(NC(=O)c3cn(C4CC4)nn3)C2)c1 [compound 727, N-{1-[(3-carbamoylphenyl)methyl]azetidin-3-yl}-1-cyclopropyl-1H-1,2,3-triazole-4-carboxamide] — 13-fold higher, 7.3 µM
- CC(c1ccc(N2CCOCC2)cc1)N1CC(NC(=O)c2cn(C3CC3)nn2)C1 (stereo not shown) [compound 728, 1-cyclopropyl-N-(1-{1-[4-(morpholin-4-yl)phenyl]ethyl}azetidin-3-yl)-1H-1,2,3-triazole-4-carboxamide] — within 1.5-fold, 0.755 µM
- COc1cccc(C(N2CC(NC(=O)c3cn(C4CC4)nn3)C2)C(F)(F)F)c1 (stereo not shown) [compound 729, 1-cyclopropyl-N-{1-[2,2,2-trifluoro-1-(3-methoxyphenyl)ethyl]azetidin-3-yl}-1H-1,2,3-triazole-4-carboxamide] — higher, > 50 µM
- CC(c1cccc(Oc2ccccc2)c1)N1CC(NC(=O)c2cn(C3CC3)nn2)C1 (stereo not shown) [compound 730, 1-cyclopropyl-N-{1-[1-(3-phenoxyphenyl)ethyl]azetidin-3-yl}-1H-1,2,3-triazole-4-carboxamide] — 5.4-fold higher, 3.04 µM
- O=C(NC1CN(C(c2ccccc2)C2CCC2)C1)c1cn(C2CC2)nn1 (stereo not shown) [compound 731, N-{1-[cyclobutyl(phenyl)methyl]azetidin-3-yl}-1-cyclopropyl-1H-1,2,3-triazole-4-carboxamide] — 2.7-fold higher, 1.52 µM
- COc1cc(C(C)N2CC(NC(=O)c3cn(C4CC4)nn3)C2)ccc1F (stereo not shown) [compound 732, 1-cyclopropyl-N-{1-[1-(4-fluoro-3-methoxyphenyl)ethyl]azetidin-3-yl}-1H-1,2,3-triazole-4-carboxamide] — 4.6-fold higher, 2.59 µM
- Cn1cnc(CN2CC(NC(=O)c3cn(C4CC4)nn3)C2)c1 [compound 733, 1-cyclopropyl-N-{1-[(1-methyl-1H-imidazol-4-yl)methyl]azetidin-3-yl}-1H-1,2,3-triazole-4-carboxamide] — 12-fold higher, 6.8 µM
- O=C(NC1CN(Cc2cccc(OCCO)c2)C1)c1cn(C2CC2)nn1 [compound 734, 1-cyclopropyl-N-(1-{[3-(2-hydroxyethoxy)phenyl]methyl}azetidin-3-yl)-1H-1,2,3-triazole-4-carboxamide] — 4.1-fold higher, 2.31 µM
- CNCCOc1cccc(CN2CC(NC(=O)c3cn(C4CC4)nn3)C2)c1 [compound 735, 1-cyclopropyl-N-[1-({3-[2-(methylamino)ethoxy]phenyl}methyl)azetidin-3-yl]-1H-1,2,3-triazole-4-carboxamide] — 4.1-fold higher, 2.33 µM
- CC(c1cccc(OCc2ccccc2)c1)N1CC(NC(=O)c2cn(C3CC3)nn2)C1 (stereo not shown) [compound 737, N-(1-{1-[3-(benzyloxy)phenyl]ethyl}azetidin-3-yl)-1-cyclopropyl-1H-1,2,3-triazole-4-carboxamide] — within 1.5-fold, 0.718 µM
- CC(c1ccc(Oc2ccccc2)cc1)N1CC(NC(=O)c2cn(C3CC3)nn2)C1 (stereo not shown) [compound 739, 1-cyclopropyl-N-{1-[1-(4-phenoxyphenyl)ethyl]azetidin-3-yl}-1H-1,2,3-triazole-4-carboxamide] — 1.9-fold higher, 1.07 µM
- O=C(NC1CN(C2CCc3cc(F)ccc32)C1)c1cn(C2CC2)nn1 (stereo not shown) [compound 740, 1-cyclopropyl-N-[1-(5-fluoro-2,3-dihydro-1H-inden-1-yl)azetidin-3-yl]-1H-1,2,3-triazole-4-carboxamide] — 12-fold higher, 6.96 µM
- CC(c1ccccc1C(F)(F)F)N1CC(NC(=O)c2cn(C3CC3)nn2)C1 (stereo not shown) [compound 741, 1-cyclopropyl-N-(1-{1-[2-(trifluoromethyl)phenyl]ethyl}azetidin-3-yl)-1H-1,2,3-triazole-4-carboxamide] — 1.8-fold higher, 1.01 µM
- CC(c1c(F)cccc1F)N1CC(NC(=O)c2cn(C3CC3)nn2)C1 (stereo not shown) [compound 742, 1-cyclopropyl-N-{1-[1-(2,6-difluorophenyl)ethyl]azetidin-3-yl}-1H-1,2,3-triazole-4-carboxamide] — 5-fold higher, 2.85 µM
- CC(c1cccc(Cl)c1Cl)N1CC(NC(=O)c2cn(C3CC3)nn2)C1 (stereo not shown) [compound 743, 1-cyclopropyl-N-{1-[1-(2,3-dichlorophenyl)ethyl]azetidin-3-yl}-1H-1,2,3-triazole-4-carboxamide] — within 1.5-fold, 0.488 µM
- CC(c1cnccn1)N1CC(NC(=O)c2cn(C3CC3)nn2)C1 (stereo not shown) [compound 745, 1-cyclopropyl-N-{1-[1-(pyrazin-2-yl)ethyl]azetidin-3-yl}-1H-1,2,3-triazole-4-carboxamide] — 13-fold higher, 7.44 µM
- CC(c1cc(F)ccc1F)N1CC(NC(=O)c2cn(C3CC3)nn2)C1 (stereo not shown) [compound 746, 1-cyclopropyl-N-{1-[1-(2,5-difluorophenyl)ethyl]azetidin-3-yl}-1H-1,2,3-triazole-4-carboxamide] — 14-fold higher, 7.78 µM
- CC(c1ccc(F)cc1)N1CC(NC(=O)c2cn(C3CC3)nn2)C1 (stereo not shown) [compound 747, 1-cyclopropyl-N-{1-[1-(4-fluorophenyl)ethyl]azetidin-3-yl}-1H-1,2,3-triazole-4-carboxamide] — 3.4-fold higher, 1.92 µM
- COc1cccc(O)c1C(C)N1CC(NC(=O)c2cn(C3CC3)nn2)C1 (stereo not shown) [compound 750, 1-cyclopropyl-N-{1-[1-(2-hydroxy-6-methoxyphenyl)ethyl]azetidin-3-yl}-1H-1,2,3-triazole-4-carboxamide] — 2.3-fold higher, 1.28 µM
- NCc1cccc(CN2CC(NC(=O)c3cn(C4CC4)nn3)C2)c1 [compound 754, N-(1-{[3-(aminomethyl)phenyl]methyl}azetidin-3-yl)-1-cyclopropyl-1H-1,2,3-triazole-4-carboxamide] — 13-fold higher, 7.34 µM
- O=C(NC1CN(C2(c3ccccc3)CC2)C1)c1cn(C2CC2)nn1 [compound 755, 1-cyclopropyl-N-[1-(1-phenylcyclopropyl)azetidin-3-yl]-1H-1,2,3-triazole-4-carboxamide] — 54-fold higher, 30.5 µM
- CNCCN1CCC(CN2CC(NC(=O)c3cn(C4CC4)nn3)C2)C1=O (stereo not shown) [compound 756, 1-cyclopropyl-N-[1-({1-[2-(methylamino)ethyl]-2-oxopyrrolidin-3-yl}methyl)azetidin-3-yl]-1H-1,2,3-triazole-4-carboxamide] — 30-fold higher, 17 µM
- CNC1CCOC(CN2CC(NC(=O)c3cn(C4CC4)nn3)C2)C1 (stereo not shown) [compound 758, 1-cyclopropyl-N-(1-{[4-(methylamino)oxan-2-yl]methyl}azetidin-3-yl)-1H-1,2,3-triazole-4-carboxamide] — higher, > 50 µM
- CC(c1n[nH]c2ccccc12)N1CC(NC(=O)c2cn(C3CC3)nn2)C1 (stereo not shown) [compound 761, 1-cyclopropyl-N-{1-[1-(1H-indazol-3-yl)ethyl]azetidin-3-yl}-1H-1,2,3-triazole-4-carboxamide] — 5.7-fold higher, 3.21 µM
- COc1cccc2c1C(N1CC(NC(=O)c3cn(C4CC4)nn3)C1)CC2 (stereo not shown) [compound 762, 1-cyclopropyl-N-[1-(7-methoxy-2,3-dihydro-1H-inden-1-yl)azetidin-3-yl]-1H-1,2,3-triazole-4-carboxamide] — 14-fold higher, 7.97 µM
- O=C(NC1CN(Cc2ccc3c(c2)C(=O)NC3)C1)c1cn(C2CC2)nn1 [compound 765, 1-cyclopropyl-N-{1-[(3-oxo-2,3-dihydro-1H-isoindol-5-yl)methyl]azetidin-3-yl}-1H-1,2,3-triazole-4-carboxamide] — 18-fold higher, 10.2 µM
- O=C(NC1CN(C(c2ccccc2)C(F)(F)F)C1)c1cn(C2CC2)nn1 (stereo not shown) [compound 766, 1-cyclopropyl-N-[1-(2,2,2-trifluoro-1-phenylethyl)azetidin-3-yl]-1H-1,2,3-triazole-4-carboxamide] — higher, > 50 µM
- CC(c1ccc2c(c1)OCCO2)N1CC(NC(=O)c2cn(C3CC3)nn2)C1 (stereo not shown) [compound 767, 1-cyclopropyl-N-{1-[1-(2,3-dihydro-1,4-benzodioxin-6-yl)ethyl]azetidin-3-yl}-1H-1,2,3-triazole-4-carboxamide] — within 1.5-fold, 0.576 µM
- COc1cccc(OC)c1C(C)N1CC(NC(=O)c2cn(C3CC3)nn2)C1 (stereo not shown) [compound 768, 1-cyclopropyl-N-{1-[1-(2,6-dimethoxyphenyl)ethyl]azetidin-3-yl}-1H-1,2,3-triazole-4-carboxamide] — 3-fold higher, 1.68 µM
- CC(c1c(Cl)cccc1Cl)N1CC(NC(=O)c2cn(C3CC3)nn2)C1 (stereo not shown) [compound 769, 1-cyclopropyl-N-{1-[1-(2,6-dichlorophenyl)ethyl]azetidin-3-yl}-1H-1,2,3-triazole-4-carboxamide] — 2.1-fold higher, 1.2 µM
- CC(C)N1CC(NC(=O)c2cn(C3CC3(F)F)nn2)C1 (stereo not shown) [compound 770, 1-(2,2-difluorocyclopropyl)-N-[1-(propan-2-yl)azetidin-3-yl]-1H-1,2,3-triazole-4-carboxamide] — 7.4-fold higher, 4.19 µM
- COc1c(CO)cccc1CN1CC(NC(=O)c2cn(C3CC3)nn2)C1 [compound 772, 1-cyclopropyl-N-(1-{[3-(hydroxymethyl)-2-methoxyphenyl]methyl}azetidin-3-yl)-1H-1,2,3-triazole-4-carboxamide] — 19-fold higher, 10.8 µM
- CS(=O)(=O)CC(c1ccccc1)N1CC(NC(=O)c2cn(C3CC3)nn2)C1 (stereo not shown) [compound 773, 1-cyclopropyl-N-[1-(2-methanesulfonyl-1-phenylethyl)azetidin-3-yl]-1H-1,2,3-triazole-4-carboxamide] — higher, > 50 µM
- CC(c1ccc2c(c1)NC(=O)CO2)N1CC(NC(=O)c2cn(C3CC3)nn2)C1 (stereo not shown) [compound 774, 1-cyclopropyl-N-{1-[1-(3-oxo-3,4-dihydro-2H-1,4-benzoxazin-6-yl)ethyl]azetidin-3-yl}-1H-1,2,3-triazole-4-carboxamide] — 2.9-fold higher, 1.62 µM
- CC(c1cccc(OCCO)c1Cl)N1CC(NC(=O)c2cn(C3CC3)nn2)C1 (stereo not shown) [compound 775, N-(1-{1-[2-chloro-3-(2-hydroxyethoxy)phenyl]ethyl}azetidin-3-yl)-1-cyclopropyl-1H-1,2,3-triazole-4-carboxamide] — 11-fold lower, 0.0494 µM
- COc1c(OCCO)cccc1C(C)N1CC(NC(=O)c2cn(C3CC3)nn2)C1 (stereo not shown) [compound 776, 1-cyclopropyl-N-(1-{1-[3-(2-hydroxyethoxy)-2-methoxyphenyl]ethyl}azetidin-3-yl)-1H-1,2,3-triazole-4-carboxamide] — 1.6-fold lower, 0.345 µM
